In PMC4901301 (Scientific Reports, 2016):

Tested on: Mtb H37Rv thyX Tet-OFF conditional knockdown mutant
Type: cell-based, Mycobacterium tuberculosis

Structure (SMILES)	MIC90 shift (increase in potency) upon ThyX depletion
O=C1C=C(Cc2ccc(F)cc2)C(=O)c2ccccc21 [Compound D4]	no shift
COc1ccc(CC2=CC(=O)c3ccccc3C2=O)cc1 [Compound D5]	no shift
CC(=O)N(C1=C(Cl)C(=O)c2ccccc2C1=O)c1cccc(F)c1 [Compound E10]	no shift
O=C1C(Cl)=C(N2CCN(C(=O)c3ccc(F)cc3)CC2)C(=O)c2ccccc21 [Compound F1]	no shift
CCS(=O)(=O)N1CCN(C2=C(Cl)C(=O)c3ccccc3C2=O)CC1 [Compound F2]	~ 2 fold
